Data: patent publication US20240025906A1 (NEURON23, INC., priority 2022, published 2024)
Like-named read-outs stand apart in the source and are kept apart here.

Columns and labels:
[1] = test system: JAK1/TYK2 pSTAT5 (Tyr694/699) in THP-1 cell line; assay: IFNa-stimulated JAK1/TYK2 pSTAT5 (Tyr694/699) inhibition cellular assay, AlphaLISA; format: cell-based; conditions: Homo sapiens, THP-1 cells, AlphaLISA (Assay B)
Summary of the method: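 The readout is AlphaLISA signal at 615 nm for phospho-STAT5 in THP-1 lysates after IFNa stimulation (added at 100 ng/mL, 30 min, 37 °C). Cells had compound for 1 h beforehand across eight 6-fold concentrations up to 10000 nM final. IC50s are 4PL fits with bottom and Hill slope constrained.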

TYK2 JH2 = biological target: T1, TYK2 JH2 (Homo sapiens, UniProt P29597); assay: TYK2 JH2 binding assay (KINOMEscan KdELECT competitive binding); conditions: TYK2 JH2 domain
T1 construct: purchased DiscoverX (KINOMEscan KdELECT service); host or cells: E. coli BL21-derived (T7 phage display) or HEK-293
T1 sequence (P29597 589-875 limits assumed): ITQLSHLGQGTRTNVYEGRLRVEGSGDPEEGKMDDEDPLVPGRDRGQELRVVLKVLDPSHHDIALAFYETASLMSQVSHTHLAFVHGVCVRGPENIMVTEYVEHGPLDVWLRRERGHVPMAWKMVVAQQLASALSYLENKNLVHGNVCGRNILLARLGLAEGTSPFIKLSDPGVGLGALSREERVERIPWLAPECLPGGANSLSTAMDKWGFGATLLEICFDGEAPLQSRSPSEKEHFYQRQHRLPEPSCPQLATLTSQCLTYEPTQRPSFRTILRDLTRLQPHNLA
Summary of the method: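 Test compounds were titrated in 11 three-fold steps against JH2 fragment captured on ligand-loaded magnetic beads, with 1 h incubation at room temperature and DMSO at 0.9%. Eluted kinase was quantified by qPCR, and Kd was fitted from the dose series.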

[2] = IFNa-stimulated, read-out: Cellular_THP1_IFNa-pSTATS_TYK2
[3] = DiscoverX KINOMEscan KdELECT (Assay A), read-out: Biochemical TYK2_DiscoverX_JH2_BND_Kd
[4] = KINOMEscan KdELECT (Assay A), read-out: Biochemical TYK2_DiscoverX_JH2_BND_Kd
[5] = IFNa-stimulated, read-out: Cellular THP1_IFNa-pSTATS_IC50
[6] = KINOMEscan KdELECT (Assay A), read-out: Biochemical TYK2_JH2_Kd

| IC50 [1, 2] [nM] | Kd (TYK2 JH2; [3]) [nM] | Kd (TYK2 JH2; [4]) [nM] | SMILES | also measured |
| --- | --- | --- | --- | --- |
| ≤ 500 | ≤ 100 |  | CNc1ncc(-c2nc3ccc(N4CC5CN(C)CC(C4)O5)cn3n2)c2cc(NC(=O)C3(F)CC3)ncc12 [Example 559, 1-fluoro-N-(5-(6-(7-methyl-9-oxa-3,7-diazabicyclo[3.3.1]nonan-3-yl)-[1,2,4]triazolo[1,5-a]pyridin-2-yl)-8-(methylamino)-2,7-naphthyridin-3-yl)cyclopropane-1-carboxamide] |  |
| ≤ 500 | ≤ 100 |  | CNc1ncc(-c2nc3cc(N4CC(F)C4)ccc3o2)c2cc(NC(=O)C3CC3)ncc12 [Example 284, N-(5-(5-(3-fluoroazetidin~1-yl)benzo[d]oxazol-2-y1)-8-(methylamino)-2,7-naphthyridin-3-yl)cyclopropanecarboxamide] |  |
| ≤ 500 |  | ≤ 100 | CNc1ncc(C#Cc2ccc(C(C)=O)c(O)c2)c2cc(NC(=O)C3CC3)ncc12 [Example 749, N-(5-((4-acetyl-3-hydroxyphenyl)ethynyl)-8-(methylamino)-2,7-naphthyridin-3-yl)cyclopropanecarboxamide] |  |
| ≤ 500 | ≤ 100 |  | CNc1ncc(-c2nc3cc(C4CCN([C@@]5(C)COC[C@H]5O)CC4)ccc3o2)c2cc(NC(=O)C3CC3)ncc12 (single isomer, unassigned) [Example 261] |  |
|  |  |  | CNc1ncc(-c2ccccc2Cl)c2cc(NC(=O)C3CC3)ncc12 [Example 15, N-(5-(2-chlorophenyl)-8-(methylamino)-2,7-naphthyridin-3-yl)cyclopropanecarboxamide] | IC50 [1, 5]: > 500 nM; Kd (TYK2 JH2; [6]): ≤ 100 nM |
|  |  |  | CNc1ncc(-c2ncn(C)n2)c2cc(NC(=O)C3CC3)ncc12 [Example 141, N-(S-(1-methyl-1H-1,2,4-triazol-3-yl)-8-(methylamino)-2,7-naphthyridin-3-yl)cyclopropanecarboxamide] | IC50 [1, 5]: > 500 nM; Kd (TYK2 JH2; [6]): ≤ 100 nM |
| ≤ 500 |  | ≤ 100 | CNc1ncc(C#Cc2ccc3c(c2)n(C)c(=O)n3C)c2cc(NC(=O)C3CC3)ncc12 [Example 614, N-(5-((1,3-dimethyl-2-oxo-2,3-dihydro-1H-benzo[d]imidazol-5-yl)ethynyl)-8-(methylamino)-2,7-naphthyridin-3-yl)cyclopropanecarboxamide] |  |
| ≤ 500 | ≤ 100 |  | CNc1ncc(-c2nc3cccc(CC#N)c3o2)c2cc(NC(=O)C3CC3)ncc12 [Example 266, N-(5-(7-(cyanomethyl)benzo[d]oxazol-2-yl)-8-(methylamino)-2,7-naphthyridin-3-yl)cyclopropanecarboxamide] |  |
| ≤ 500 |  | ≤ 100 | CNc1ncc(C#Cc2ccc3c(c2)CC[C@@H](CO)O3)c2cc(NC(=O)C3CC3)ncc12 (single isomer, unassigned) [Example 983] |  |
| ≤ 500 |  | ≤ 100 | CNc1ncc(-c2ccc(Oc3ccnc(C)c3)cc2)c2cc(NC(=O)C3CC3)ncc12 [Example 862, N-(8-(methylamino)-5-(4-((2-methylpyridin-4-yl)oxy)phenyl)-2,7-naphthyridin-3-yl)cyclopropanecarboxamide] |  |
| ≤ 500 | ≤ 100 |  | CNc1ncc(-c2nc3cc(N4CCC[C@H](C#N)C4)ccc3o2)c2cc(NC(=O)C3CC3)ncc12 [Example 293] |  |
| ≤ 500 |  | ≤ 100 | CNc1ncc(-c2ccc(OCCOC)cc2)c2cc(NC(=O)C3CC3)ncc12 [Example 859, N-(5-(4-(2-methoxyethoxy)phenyl)-8-(methylamino)-2,7-naphthyridin-3-yl)cyclopropanecarboxamide] |  |
| ≤ 500 |  | ≤ 100 | CNc1ncc(C#Cc2ccc(OC)nc2)c2cc(NC(=O)C3CC3)ncc12 [Example 631, N-(5-((6-methoxypyridin-3-yl)ethynyl)-8-(methylamino)-2,7-naphthyridin-3-yl)cyclopropanecarboxamide] |  |
|  |  |  | CNc1ncc(C2=CCCCC2)c2cc(NC(=O)C3CC3)ncc12 [Example 69, N-(5-(cyclohex-1-en-1-yl)-8-(methylamino)-2,7-naphthyridin-3-yl)cyclopropanecarboxamide] | IC50 [1, 5]: > 500 nM; Kd (TYK2 JH2; [6]): ≤ 100 nM |
|  |  |  | CNc1ncc(-c2ccccc2)c2cc(NC(=O)C3CC3)ncc12 [Example 1, N-(8-(methylamino)-5-phenyl-2,7-naphthyridin-3-yl)cyclopropanecarboxamide] | IC50 [1, 5]: > 500 nM; Kd (TYK2 JH2; [6]): ≤ 100 nM |
| ≤ 500 | ≤ 100 |  | [2H]C([2H])([2H])Nc1ncc(-c2nc3cc(OCC4CC4)ccc3o2)c2cc(NC(=O)C3CC3)ncc12 [Example 454, N-(5-(5-(cyclopropylmethoxy)benzo[d]oxazol-2-yl)-8-((methyl-d3)amino)-2,7-naphthyridin-3-yl)cyclopropanecarboxamide] |  |
|  |  | ≤ 100 | CNc1ncc(-c2nc3ccc(C(C)(C)O)cn3n2)c2cc(NC(=O)C3CC3)ncc12 [Example 1041] | IC50 ([1]; IFNa-stimulated pSTAT5 (Tyr694/699), read-out: Cellular_THP1_IFNa-pSTATS_TYK2): ≤ 500 nM |
| ≤ 500 |  | ≤ 100 | CNc1ncc(-c2nc3cc(OC)cc(F)c3o2)c2cc(NC(=O)C3CC3)ncc12 [Example 937, N-(5-(7-fluoro-5-methoxybenzo[d]oxazol-2-yl)-8-(methylamino)-2,7-naphthyridin-3-yl)cyclopropanecarboxamide] |  |
|  |  |  | CNc1ncc(-c2cc(C)no2)c2cc(NC(=O)C3CC3)ncc12 [Example 10, N-(8-(methylamino)-5-(3-methylisoxazol-5-yl)-2,7-naphthyridin-3-yl)cyclopropanecarboxamide] | IC50 [1, 5]: > 500 nM; Kd (TYK2 JH2; [6]): ≤ 100 nM |
| ≤ 500 | ≤ 100 |  | CNc1ncc(-c2nc3cc(OC)ccc3o2)c2cc(Nc3cccc(OC)n3)ncc12 [Example 379, 4-(5-methoxybenzo[d]oxazol-2-yl)-N^6-(6-methoxypyridin-2-yl)-N^1.methyl-2,7-naphthyridine-1,6-diamine] |  |
| ≤ 500 | ≤ 100 |  | CNc1ncc(-c2nc3cc(OC4COC4)ccc3o2)c2cc(NC(=O)C3CC3)ncc12 [Example 228, N-(8-(methylamino)-5-(5-(oxetan-3-yloxy)benzo[d]oxazol-2-yl)-2,7-naphthyridin-3-yl)cyclopropanecarboxamide] |  |
| > 500 |  | ≤ 100 | CNc1ncc(C#Cc2cc(C#N)c(OC)cn2)c2cc(NC(=O)C3CC3)ncc12 [Example 730, N-(5-((4-cyano-5-methoxypyridin-2-yl)ethynyl)-8-(methylamino)-2,7-naphthyridin-3-yl)cyclopropanecarboxamide] |  |
| ≤ 500 | ≤ 100 |  | CNc1ncc(-c2nc3ccc(N4CCO[C@H](C)C4)cn3n2)c2cc(NC(=O)[C@@H]3C[C@@H]3C)ncc12 [Example 546, (1R,2S)-2-methyl 1N-(8-(methylamino)-5-(6-((R)-2-methylmorpholino)-[1,2,4]triazolo[1,5-a]pyridin-2-yl)-2,7-naphthyridin-3-yl)cyclopropane-1-carboxamide] |  |
| > 500 | ≤ 100 |  | CNc1ncc(-c2nc3ccc(N4CCOCC4)cn3n2)c2cc(NC(=O)[C@H](C)F)ncc12 (single isomer, unassigned) [Example 533] |  |
| ≤ 500 |  | ≤ 100 | CNc1ncc(-c2nc3cc(OC)ccc3s2)c2cc(NC(=O)C3CC3)ncc12 [Example 930, N-(5-(5-methoxybenzo[d]thiazol-2-yl)-8-(methylamino)-2,7-naphthyridin-3-yl)cyclopropanecarboxamide] |  |
|  |  |  | CNC(=O)c1cnc(NC)c2cnc(NC(=O)C3CC3)cc12 [Example 124, 6-(cyclopropanecarboxamido)-N-methyl-1-(methylamino)-2,7-naphthyridine-4-carboxamide] | IC50 [1, 5]: > 500 nM; Kd (TYK2 JH2; [6]): ≤ 100 nM |
| ≤ 500 | ≤ 100 |  | CNc1ncc(-c2nc3cc(OC(F)(F)F)ccc3o2)c2cc(NC(=O)C3CC3)ncc12 [Example 218, N-(8-(methylamino)-5-(5-(trifluoromethoxy)benzo[d]oxazol-2-yl)-2,7-naphthyridin-3-yl)cyclopropanecarboxamide] |  |
| ≤ 500 |  | ≤ 100 | CNc1ncc(C#Cc2ccc3ncn(CCCOC)c3c2)c2cc(NC(=O)C3CC3)ncc12 [Example 693, N-(5-((1-(3-methoxypropyl)-1H-benzo[d]imidazol-6-yl)ethynyl)-8-(methylamino)-2,7-naphthyridin-3-yl)cyclopropanecarboxamide] |  |
| ≤ 500 | ≤ 100 |  | CNc1ncc(-c2nc3cc(N4CCC(F)(F)CC4)ccc3o2)c2cc(NC(=O)C3CC3)ncc12 [Example 301, N-(5-(5-(4,4-difluoropiperidin-1-yl)benzo[d]oxazol-2-y1)-8-(methylamino)-2,7-naphthyridin-3-yl)cyclopropanecarboxamide] |  |

| SMILES | IC50 [1, 2] [nM] | Kd (TYK2 JH2; [3]) [nM] | Kd (TYK2 JH2; [4]) [nM] | also measured |
| --- | --- | --- | --- | --- |
| CNc1ncc(-c2nc3cc(O[C@H]4C[C@H](OC)C4)ccc3o2)c2cc(NC(=O)C3CC3)ncc12 [Example 199, N-(5-(5-((1r,3r)-3-methoxycyclobutoxy)benzo[d]oxazol-2-yl)-8-(methylamino)-2,7-naphthyridin-3-yl)cyclopropanecarboxamide] | ≤ 500 | ≤ 100 |  |  |
